Assay results as given in the supplement of paper PMC8671470.

How the values were obtained:
Assay in all cases: cell viability (% survival relative to DMSO control); higher = less cytotoxic
Conditions in all cases: 72 h
[1] = test system: myeloid leukemia patient primary cells Pat.3
Outline: (§1)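 Thawed, Ficoll-purified mononuclear cells from AML or CML patients in RPMI 1640 with 10% FBS were seeded at 10,000 cells/well on 384-well plates pre-printed with 70 compounds at five tenfold concentrations, 1–10,000 nM, in duplicate, for 72 h. Viability was read by CellTiter-Glo and normalised to DMSO and 10 μM proteasome-inhibitor wells. Where given, area under the curve came from four-parameter log-logistic fits (drc, PharmacoGx R packages).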

[2] = test system: myeloid leukemia patient primary cells Pat.7
Outline: as §1

[3] = test system: myeloid leukemia patient primary cells Pat.8
Outline: as §1

[4] = test system: myeloid leukemia patient primary cells Pat.12
Outline: as §1

[5] = test system: myeloid leukemia patient primary cells Pat.10
Outline: as §1

[6] = test system: myeloid leukemia patient primary cells Pat.9
Outline: as §1

[7] = test system: myeloid leukemia patient primary cells Pat.11
Outline: as §1

[8] = test system: myeloid leukemia patient primary cells Pat.2
Outline: as §1

[9] = test system: myeloid leukemia patient primary cells Pat.6
Outline: as §1

[10] = test system: myeloid leukemia patient primary cells Pat.1
Outline: as §1

With CCC(=O)N1CCN(c2ccc(-n3c(=O)ccc4cnc5ccc(-c6cnc7ccccc7c6)cc5c43)cc2C(F)(F)F)CC1 [Torin1] the cell viability ([1]; 1 nM) was 96.1%, the cell viability ([1]; 10 nM) was > 100% and the cell viability ([1]; 100 nM) was 93.2%. For the same compound, the cell viability ([1]; 1000 nM) was 66.8%, the cell viability ([1]; 10000 nM) was 62.1% and the cell viability ([2]; 1 nM) was 75.7%. The cell viability ([2]; 10 nM) was 74.2%, the cell viability ([2]; 100 nM) was 88.2% and the cell viability ([2]; 1000 nM) was 44.8%. The cell viability ([2]; 10000 nM) was 37.6%, the cell viability ([3]; 1 nM) was 91.1% and the cell viability ([3]; 10 nM) was 66.9%. For the same compound, the cell viability ([3]; 100 nM) was 73.1%, the cell viability ([3]; 1000 nM) was 61.7% and the cell viability ([3]; 10000 nM) was 53.7%. The cell viability ([4]; 1 nM) was 90.6%, the cell viability ([4]; 10 nM) was 91.5% and the cell viability ([4]; 100 nM) was 92.3%. It also gave a cell viability ([4]; 1000 nM) of 91.5%, a cell viability ([4]; 10000 nM) of 89.5% and a cell viability ([5]; 1 nM) of 63.9%. For the same compound, the cell viability ([5]; 10 nM) was 96.5%, the cell viability ([5]; 100 nM) was 30% and the cell viability ([5]; 1000 nM) was 18.6%. The cell viability ([5]; 10000 nM) was 9.9%, the cell viability ([6]; 1 nM) was 80.9% and the cell viability ([6]; 10 nM) was 57.7%. It also gave a cell viability ([6]; 100 nM) of 62%, a cell viability ([6]; 1000 nM) of 27% and a cell viability ([6]; 10000 nM) of 12.3%. It also gave a cell viability ([7]; 1 nM) of 92.9%, a cell viability ([7]; 10 nM) of 90.9% and a cell viability ([7]; 100 nM) of 85.8%. For the same compound, the cell viability ([7]; 1000 nM) was 56.7%, the cell viability ([7]; 10000 nM) was 39.4% and the cell viability ([8]; 1 nM) was 92.5%. For the same compound, the cell viability ([8]; 10 nM) was 94.3%, the cell viability ([8]; 100 nM) was 74.2% and the cell viability ([8]; 1000 nM) was 62.8%. It also gave a cell viability ([8]; 10000 nM) of 64.2%, a cell viability ([9]; 1 nM) of 97.8% and a cell viability ([9]; 10 nM) of 89.3%. It also gave a cell viability ([9]; 100 nM) of 94.1%, a cell viability ([9]; 1000 nM) of 62.6% and a cell viability ([9]; 10000 nM) of 62.9%. It also gave a cell viability ([10]; 1 nM) of 85.1%, a cell viability ([10]; 10 nM) of 60.4% and a cell viability ([10]; 100 nM) of 44.2%. For the same compound, the cell viability ([10]; 1000 nM) was 30.2% and the cell viability ([10]; 10000 nM) was 21.5%.
